Patent US4113766A, “Oxaprostaglandins” (Pfizer Inc., priority 1975, dated 1978)

Columns and labels:
early pregnant rat = test: induction of abortion in early pregnant rats; format: in vivo
Excerpt: (§1) These tests include, among others, a test for effect on isolated smooth muscle from guinea pig ileum and rat uterus, a test for effect on histamine induced bronchospasm in guinea pig, a test for effects on dog blood pressure, a test for induction of diarrhea in mice, and a test for the induction of abortion in early pregnant rats.
On the basis of the difference seen in the rat uterus and guinea pig ileum tests with 19-oxaprostaglandin E2, one would expect to have a reduction of the unpleasant gastrointestinal side effects which were encountered when natural PGE2 was employed as an abortion inducer (Lancet, 536, 1971).

estrogenized rat uterus = test: spasmogenic effect on estrogenized rat uterus in vitro; format: tissue-based; settings: in words; rat uterus vs guinea pig ileum, Table I
Excerpt: as §1
^(c) Threshold dose for spasmogenic effect on estrogenized rat uterus

[1] = system: histamine induced bronchospasm; test: protection by aerosol against histamine induced bronchospasm in guinea pig; format: in vivo; settings: in words, from Table I
Protocol: as §1
^(b) Per cent protection by 100 μg/ml aerosol dose for histamine
induced bronchospasm in the guinea pig.

Row | SMILES | effectiveness relative to natural PGE2 in inducing abortion (early pregnant rat) | tissue selectivity (estrogenized rat uterus) | bronchodilator selectivity versus natural PGE2 [1]
1 | COCCC[C@H](O)/C=C/[C@H]1[C@H](O)CC(=O)[C@@H]1C/C=C\CCCC(=O)O [19-oxa PGE2, 9-oxo-11α,15α-dihydroxy-19-oxa-cis-5-trans-13-prostadienoic acid] | as effective as natural PGE2 | advantage of tissue selectivity | –
2 | CCOCCC[C@H](O)/C=C/[C@H]1[C@H](O)CC(=O)[C@@H]1C/C=C\CCCC(=O)O [19-oxa-ω-homo-PGE2, 9-oxo-11α,15α-dihydroxy-19-oxa-cis-5-trans-13-w-homo-prostadienoic acid] | – | – | more selective bronchodilator than natural PGE2
